Publication PMC467089, “Click estradiol dimers with novel aromatic bridging units: synthesis and anticancer evaluation” (Journal of Enzyme Inhibition and Medicinal Chemistry, 2024)

What was measured:
[1] = MTS cytotoxicity assay, MRC-5; format: cell-based; settings: human, MRC-5 cells (non-tumour fibroblasts); MTS assay, 72-h incubation, mean ± SD of 3 independent experiments; read-out: IC50 cytotoxic activity MRC-5
Procedure, shortened: (§1)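 Culture medium carried 10% foetal calf serum plus antibiotics. Treatment lasted 72 h with a fourfold dilution series, followed by MTS detection, in technical duplicate across three biological replicates.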

[2] = test system: HCT116 (colorectal adenocarcinoma); test: MTS cytotoxicity assay, HCT116; format: cell-based; settings: Homo sapiens, HCT-116; MTS assay, 72-h incubation, mean ± SD of 3 independent experiments; read-out: IC50 cytotoxic activity HCT116
Procedure, shortened: as §1

[3] = test system: K562 (chronic myelogenous leukaemia); test: MTS cytotoxicity assay, K562; format: cell-based; settings: Homo sapiens, K562; MTS assay, 72-h incubation, mean ± SD of 3 independent experiments; read-out: IC50 cytotoxic activity K562
Procedure, shortened: as §1

[4] = test system: A549 (lung adenocarcinoma); test: MTS cytotoxicity assay, A549; format: cell-based, human; settings: MTS assay, 72-h incubation, mean ± SD of 3 independent experiments; for IC50: Homo sapiens, A549, read-out: IC50 cytotoxic activity A549
Procedure, shortened: (§2)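 MTS read-out after 72 h compound exposure at 37 °C. Cells plated the day before, treated with fourfold serial dilutions from DMSO stocks; duplicate wells, three independent experiments.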

[5] = test system: CEM-DNR (daunorubicin resistant variant of CCRF-CEM); test: MTS cytotoxicity assay, CEM-DNR; format: cell-based, human; settings: Homo sapiens, CEM-DNR; MTS assay, 72-h incubation, mean ± SD of 3 independent experiments; read-out: IC50 cytotoxic activity CEM-DNR
Procedure, shortened: as §2

[6] = test system: U2OS cells; test: Immunofluorescence of microtubules / mitotic spindle; format: cell-based, human; settings: 10 µM, 24-h incubation
From the text: In addition, the presence of aster-like tubulin structures indicated the failure in microtubule elongation (Figure 4, ED5). […] The observed intracellular effects of ED3 and ED5 are consistent with data from in vitro assembly assays and cell cycle analyses, thereby strongly supporting the proposed antimitotic mechanisms of these EDs. […] Importantly, cytotoxic IC50 values may vary depending on the duration of exposure to the drug. A more extended exposure could lead to a decrease in the IC50 value, and vice versa. This temporal factor could also contribute to the observed differential sensitivity among the cell lines. The detailed mechanism and the extent to which these cellular and molecular dynamics (MD) contribute to the observed phenomenon might necessitate further investigation and experimentation.
U2OS cells, cultivated on coverslips, underwent a PBS wash and were then fixed in a solution of 3% paraformaldehyde in a buffer containing 10 mM MES, 150 mM NaCl, 5 mM EGTA, 5 mM MgCl2, 5 mM glucose, adjusted to a pH of 6.1. The nuclei were made visible using Hoechst 33342. Subsequently, a 60-min blocking step with 5% goat serum in PBS (SpinChem, Seattle, WA) was followed by a 60-min incubation with α-tubulin (DM1A) mouse monoclonal antibody (Cell Signaling, Danvers, MA) in PBS supplemented with 1% BSA and 0.3% Triton X-100. Visualisation was achieved using Alexa Fluor-488 conjugated anti-mouse antibodies (Life Technologies, Carlsbad, CA). Between each step, the samples underwent a series of three 5-min washes with PBS. Finally, the samples were mounted using Vectashield Mounting Medium with DAPI and imaged utilising a Zeiss spinning disk confocal microscope equipped with CSU-X1 unit (Yokogawa, Musashino, Japan)[10].

[7] = test system: U2OS (osteosarcoma); test: MTS cytotoxicity assay, U2OS; format: cell-based, human; settings: MTS assay, 72-h incubation, mean ± SD of 3 independent experiments; for IC50: Homo sapiens, U2OS, read-out: IC50 cytotoxic activity U2OS
Procedure, shortened: as §2

[8] = test system: CCRF-CEM (childhood T-cell acute lymphoblastic leukaemia); test: MTS cytotoxicity assay, CCRF-CEM; format: cell-based; settings: Homo sapiens, MTS assay, 72-h incubation, mean ± SD of 3 independent experiments, read-out: IC50 cytotoxic activity CCRF-CEM
Procedure, shortened: as §1

[9] = test system: CCRF-CEM lymphoblasts; test: Phospho-histone H3 (Ser10) mitotic marker, flow cytometry; format: cell-based, human
Procedure, shortened: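 CCRF-CEM cells treated 24 h, then fixed in cold 70% ethanol, permeabilised with 0.25% Triton X-100 and stained with anti-phospho-histone H3 (Ser10). After 50 μg/mL RNase and propidium iodide, analysed by flow cytometry at 488 nm; sub-G1 events counted as non-viable with fragmented DNA.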

[10] = test system: HCT116p53−/− (p53 gene null variant of HCT116); test: MTS cytotoxicity assay, HCT116p53−/−; format: cell-based; settings: Homo sapiens, HCT-116; MTS assay, 72-h incubation, mean ± SD of 3 independent experiments; read-out: IC50 cytotoxic activity HCT116p53-
Procedure, shortened: as §1

SMILES | IC50 at 72 h [1] [nM] | IC50 [2] [nM] | IC50 [3] [nM] | IC50 [4] [nM] | IC50 [5] [nM] | microtubule organisation in mitotic cells (in words) [6] | IC50 [7] [nM] | IC50 [8] [nM] | mitosis-specific phosphorylation of histone H3 (in words) ([9]; 1× and 5×IC50, 24 h) | pH3Ser10, % of positive cells ([9]; 1×IC50, 24 h) [%] | pH3Ser10, % of positive cells ([9]; 5×IC50, 24 h) [%] | IC50 [10] [nM] | IC50 cytotoxic activity A549 [4] | IC50 cytotoxic activity U2OS [7]
COc1cc(Cn2cc([C@]3(O)CC[C@H]4[C@@H]5CCc6cc(O)ccc6[C@H]5CC[C@@]43C)nn2)cc(Cn2cc([C@]3(O)CC[C@H]4[C@@H]5CCc6cc(O)ccc6[C@H]5CC[C@@]43C)nn2)c1 [ED3, (17β,17′β)-17,17′-[(5-Methoxybenzene-1,3-diyl)bis(methanediyl-1H-1,2,3-triazole-1,4-diyl)]bisestra-1,3,5(10)-triene-3,17-diol] | > 50000 | 470 ± 22 | 330 ± 74 | 600 ± 47 | > 50000 | disruption in microtubule organisation | 610 ± 33 | 380 ± 19 | did not induce an increase of mitosis-specific phosphorylation of histone H3 | 1.43 | 0.77 | 450 ± 39 |  | 
C[C@]12CC[C@@H]3c4ccc(O)cc4CC[C@H]3[C@@H]1CC[C@@]2(O)c1cn(Cc2cc(Cn3cc([C@]4(O)CC[C@H]5[C@@H]6CCc7cc(O)ccc7[C@H]6CC[C@@]54C)nn3)cc(OCCO)c2)nn1 [ED5, (17β,17′β)-17,17′-{[5-(2-Hydroxyethoxy)benzene-1,3-diyl]bis(methanediyl-1H-1,2,3-triazole-1,4-diyl)}bisestra-1,3,5(10)-triene-3,17-diol] | > 50000 | 2020 ± 190 | 420 ± 44 | > 50000 | > 50000 | disruption in microtubule organisation | > 50000 | 710 ± 40 |  | 6.27 | 0.34 | 1980 ± 170 | did not exhibit activity | did not exhibit activity
C[C@]12CC[C@@H]3c4ccc(O)cc4CC[C@H]3[C@@H]1CC[C@@]2(O)c1cn(Cc2cccc(Cn3cc([C@]4(O)CC[C@H]5[C@@H]6CCc7cc(O)ccc7[C@H]6CC[C@@]54C)nn3)n2)nn1 [ED, reference compound] | 1160 ± 250 | 950 ± 110 | 580 ± 230 | > 50000 | > 50000 | disruption in microtubule organisation | 6230 ± 700 | 490 ± 220 |  | 8.08 | 48.71 | 900 ± 320 |  | 
